The data set is described as follows: Stability on storage: HPLC assay for API, impurities and degradants (Examples 1-4). Format: physicochemical. The conditions noted are these: period of 4 weeks, 2-8° C. to 60° C. The protocol: (§1) The injection volume was 10 μL.
as §1

Structures are written as SMILES. Where a name gives a salt, the structure may show the parent alone.

Regarding `Cc1ccc(N(CC2=NCCN2)c2cccc(O)c2)cc1` [phentolamine mesylate], the stability in water entry is reported as “degrades rapidly”.

The values above are taken from US12721810B2, “Aqueous ophthalmic solutions of phentolamine and medical uses thereof” (Opus Genetics, Inc., priority 2013, dated 2026).
